For data set [1] the following is noted: cited from earlier work.
Data set [2] can be described thus: Parent-metabolite PK model (non-linear mixed-effect modeling) after SC LHA administration. The data set is classed as in vivo, Sprague-Dawley rats. The method, then:
In addition, a combined transit model with first-order absorption was evaluated to better describe absorption phase. In the transit model, the optimal number of transit compartments (NTR) and the mean transit time (MTT) were estimated. The transit model introduced three parameters—Ktr, NTR, and MTT. Two of these three parameters were estimated. The relationship of these parameters is shown in the following equation: MTT= (NTR+1)/Ktr The inter-individual variability (IIV) was assessed using an exponential variability model as following equation: Pi=Ptv ×exp (ETA) where Pi represents the value of the individual PK parameter, Ptv is a typical value for P, and ETA indicates an interindividual random effect with the mean of zero and variance of ω^2. Residual random variability (ε) was calculated using a proportional error model for the three types of observations. Optimal model selection was guided by changes in diagnostic values including twice the negative log like (−2LL), Akaike information Criterion (AIC), Baysian Information Criteria (BIC), visual inspection of various diagnostic plots (goodness of fit plot), and precision of parameter estimates. The visual predictive check (VPC) and boot strap analysis was conducted for non-parametric evaluation of the model. Graphical diagnostics including basic goodness-of-fit plot and other accessory plots were used for single run-based diagnostics during model development. For the final model, the robustness and predictive performance were evaluated using multiple run-based diagnostics such as bootstrapping. A bootstrap procedure was conducted with a total of 1000 bootstrap-resampled datasets from the original dataset. Bootstrap results of median and 95% confidence intervals (CIs, […]) were compared with final parameter estimates. The 95% confidence intervals of parameters obtained from this step were compared with final parameter estimates.

Setting [3] is: SC LHA, rats, model estimate (fixed effect).

Each structure is given as a SMILES string.

Data on three molecules can be found in paper PMC7913210 (Pharmaceutics, 2021).

Take `Cc1cccc(C)c1NC(=O)CN` [GX, glycylxylidide]: the “potency as anti-arrhythmic agent relative to lidocaine” value in data set [1] is recorded as about 10%. The “CLm2/F, Apparent Metabolite clearance” value in data set [2] (SC LHA, rats, second metabolite (GX), model estimate) is given as 1.09 L/h.
Take `CCN(CC)CC(=O)Nc1c(C)cccc1C` [Lidocaine, reference compound]: the “Vmax, Maximum rate of reaction” value in data set [2] (SC LHA, rats, Michaelis-Menten elimination of lidocaine, model estimate) is 423,962.94 nmol/h. Besides, in data set [2] (setting [3]), the “MTT, Mean Transit Time” value is 0.64 h and the “Ntr, Number of transit compartments” value was 4.97.
Consider `CCNCC(=O)Nc1c(C)cccc1C` [MEGX, monoethylglycylxylidide], for which the “potency as anti-arrhythmic agent relative to lidocaine” value in data set [1] is “approximately 80%”. Moreover, in data set [2] (SC LHA, rats, MEGX to GX, model estimate), the “Fm2, Fraction of the first metabolite converted to second metabolite” value is recorded as 0.47. Further, the “CLm1/F, Apparent Metabolite (MEGX) clearance” value in data set [2] (setting [3]) is given as 14.94 L/h. Further, the “MEGX converted into GX” value in data set [2] (model prediction, hyaluronic acid pre-incorporated lidocaine injected subcutaneously) is reported as “about 47%”.
